Assay in all cases: Eurofins kinase selectivity profile against 380 other human recombinant kinases (Table S2)
Common to all, as to format: biochemical

The target of test [1] is T1, 380 human recombinant protein kinases (Homo sapiens, UniProt P00519, Y253F).
T1 construct: purchased Eurofins (Celle Lévescault)
To be noted: Abl(Y253F)(h), read-out: Inhibition rate. The method in brief:
(§1)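 The inhibitor was sent to a contract lab and screened at various concentrations against 380 human recombinant protein kinases. This served as a counter-screen for MK2 specificity.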

The target in test [2] is T2, 380 human recombinant protein kinases (Homo sapiens, UniProt P51617).
T2 construct: purchased Eurofins (Celle Lévescault)
As to conditions: IRAK1(h), read-out: Inhibition rate. The method in brief: as §1

Test [3] addresses T3, 380 human recombinant protein kinases (Homo sapiens, UniProt P78527).
T3 construct: purchased Eurofins (Celle Lévescault)
To be noted: DNA-PK(h), read-out: Inhibition rate (%). The essentials:
as §1

Test [4] deals with T4, 380 human recombinant protein kinases (Homo sapiens, UniProt Q09013).
T4 construct: purchased Eurofins (Celle Lévescault)
T4 sequence (Q09013 1-629): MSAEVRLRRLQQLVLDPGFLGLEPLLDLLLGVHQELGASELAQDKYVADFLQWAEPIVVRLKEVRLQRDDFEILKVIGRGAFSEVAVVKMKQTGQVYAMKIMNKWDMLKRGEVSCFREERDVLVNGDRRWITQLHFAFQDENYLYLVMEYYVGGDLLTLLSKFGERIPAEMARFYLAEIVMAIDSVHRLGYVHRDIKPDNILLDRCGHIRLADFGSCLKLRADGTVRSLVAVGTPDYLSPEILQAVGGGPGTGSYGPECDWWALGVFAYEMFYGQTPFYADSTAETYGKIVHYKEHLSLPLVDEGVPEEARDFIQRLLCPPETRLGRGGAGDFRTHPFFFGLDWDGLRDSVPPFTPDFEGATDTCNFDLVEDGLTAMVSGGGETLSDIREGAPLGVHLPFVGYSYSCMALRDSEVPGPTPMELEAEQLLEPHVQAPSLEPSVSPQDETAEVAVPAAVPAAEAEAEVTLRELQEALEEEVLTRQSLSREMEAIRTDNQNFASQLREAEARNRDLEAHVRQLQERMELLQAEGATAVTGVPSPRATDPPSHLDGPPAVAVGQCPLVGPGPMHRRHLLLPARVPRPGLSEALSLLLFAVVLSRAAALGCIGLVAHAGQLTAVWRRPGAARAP
To be noted: DMPK(h), read-out: Inhibition rate. The method in brief: as §1

Test [5] concerns the target T5, 380 human recombinant protein kinases (Homo sapiens, UniProt Q15349).
T5 construct: purchased Eurofins (Celle Lévescault)
As to conditions: Rsk3(h), read-out: Inhibition rate (%). The method in brief: as §1

For test [6], the target named is T6, 380 human recombinant protein kinases (Homo sapiens, UniProt Q8TD19).
T6 construct: purchased Eurofins (Celle Lévescault)
T6 sequence (Q8TD19 1-979): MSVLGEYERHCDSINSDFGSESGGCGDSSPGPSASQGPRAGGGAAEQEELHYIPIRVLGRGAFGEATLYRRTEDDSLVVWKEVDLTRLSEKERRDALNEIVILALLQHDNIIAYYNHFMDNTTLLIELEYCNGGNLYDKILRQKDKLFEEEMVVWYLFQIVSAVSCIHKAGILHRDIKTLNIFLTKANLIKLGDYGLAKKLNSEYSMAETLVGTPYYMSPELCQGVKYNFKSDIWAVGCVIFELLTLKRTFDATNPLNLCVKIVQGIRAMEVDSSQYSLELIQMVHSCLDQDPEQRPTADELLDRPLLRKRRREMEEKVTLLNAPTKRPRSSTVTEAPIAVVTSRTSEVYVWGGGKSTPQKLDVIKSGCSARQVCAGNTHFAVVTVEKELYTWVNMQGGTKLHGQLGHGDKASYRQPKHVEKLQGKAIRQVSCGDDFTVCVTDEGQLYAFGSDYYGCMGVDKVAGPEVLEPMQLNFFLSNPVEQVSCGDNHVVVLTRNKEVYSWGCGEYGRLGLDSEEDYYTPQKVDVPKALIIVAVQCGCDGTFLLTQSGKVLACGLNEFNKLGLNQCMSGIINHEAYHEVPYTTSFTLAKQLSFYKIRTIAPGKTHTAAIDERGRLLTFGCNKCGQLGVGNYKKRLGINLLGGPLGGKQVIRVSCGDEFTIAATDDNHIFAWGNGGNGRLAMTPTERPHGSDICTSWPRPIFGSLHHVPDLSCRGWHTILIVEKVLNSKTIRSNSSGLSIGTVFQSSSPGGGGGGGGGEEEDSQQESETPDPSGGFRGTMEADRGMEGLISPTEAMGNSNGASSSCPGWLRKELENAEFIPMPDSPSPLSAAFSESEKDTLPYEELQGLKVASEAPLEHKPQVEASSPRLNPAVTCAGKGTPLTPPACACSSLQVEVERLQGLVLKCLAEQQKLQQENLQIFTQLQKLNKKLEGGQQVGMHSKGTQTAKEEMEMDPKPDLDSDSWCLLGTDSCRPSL
To be noted: NEK9(h), read-out: Inhibition rate. The method in brief: as §1

Test [7] has as its target T7, 380 human recombinant protein kinases (Homo sapiens, UniProt Q9NSY1).
T7 construct: purchased Eurofins (Celle Lévescault)
As to conditions: BIKe(h), read-out: Inhibition rate. The method in brief: as §1

The structures appear in SMILES notation.

T5 sequence (Q15349 whole entry): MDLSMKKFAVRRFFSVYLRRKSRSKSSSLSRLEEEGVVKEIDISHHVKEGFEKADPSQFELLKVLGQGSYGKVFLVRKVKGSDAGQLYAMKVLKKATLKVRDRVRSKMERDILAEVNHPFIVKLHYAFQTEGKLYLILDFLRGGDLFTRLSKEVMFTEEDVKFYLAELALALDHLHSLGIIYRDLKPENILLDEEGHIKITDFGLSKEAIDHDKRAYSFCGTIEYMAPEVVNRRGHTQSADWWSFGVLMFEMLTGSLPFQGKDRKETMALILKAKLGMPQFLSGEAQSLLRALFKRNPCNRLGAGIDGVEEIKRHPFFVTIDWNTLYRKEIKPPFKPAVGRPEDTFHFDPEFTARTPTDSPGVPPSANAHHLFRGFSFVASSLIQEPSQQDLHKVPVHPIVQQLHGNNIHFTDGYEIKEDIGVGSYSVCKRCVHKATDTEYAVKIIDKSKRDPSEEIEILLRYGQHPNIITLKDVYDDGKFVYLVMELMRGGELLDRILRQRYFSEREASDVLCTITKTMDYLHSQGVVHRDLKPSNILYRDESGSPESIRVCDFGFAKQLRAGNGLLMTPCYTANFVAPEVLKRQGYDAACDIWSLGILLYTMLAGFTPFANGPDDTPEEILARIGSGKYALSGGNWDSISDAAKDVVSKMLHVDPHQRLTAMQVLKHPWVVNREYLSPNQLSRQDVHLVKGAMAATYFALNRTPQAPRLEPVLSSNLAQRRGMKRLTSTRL
T7 sequence (Q9NSY1 whole entry): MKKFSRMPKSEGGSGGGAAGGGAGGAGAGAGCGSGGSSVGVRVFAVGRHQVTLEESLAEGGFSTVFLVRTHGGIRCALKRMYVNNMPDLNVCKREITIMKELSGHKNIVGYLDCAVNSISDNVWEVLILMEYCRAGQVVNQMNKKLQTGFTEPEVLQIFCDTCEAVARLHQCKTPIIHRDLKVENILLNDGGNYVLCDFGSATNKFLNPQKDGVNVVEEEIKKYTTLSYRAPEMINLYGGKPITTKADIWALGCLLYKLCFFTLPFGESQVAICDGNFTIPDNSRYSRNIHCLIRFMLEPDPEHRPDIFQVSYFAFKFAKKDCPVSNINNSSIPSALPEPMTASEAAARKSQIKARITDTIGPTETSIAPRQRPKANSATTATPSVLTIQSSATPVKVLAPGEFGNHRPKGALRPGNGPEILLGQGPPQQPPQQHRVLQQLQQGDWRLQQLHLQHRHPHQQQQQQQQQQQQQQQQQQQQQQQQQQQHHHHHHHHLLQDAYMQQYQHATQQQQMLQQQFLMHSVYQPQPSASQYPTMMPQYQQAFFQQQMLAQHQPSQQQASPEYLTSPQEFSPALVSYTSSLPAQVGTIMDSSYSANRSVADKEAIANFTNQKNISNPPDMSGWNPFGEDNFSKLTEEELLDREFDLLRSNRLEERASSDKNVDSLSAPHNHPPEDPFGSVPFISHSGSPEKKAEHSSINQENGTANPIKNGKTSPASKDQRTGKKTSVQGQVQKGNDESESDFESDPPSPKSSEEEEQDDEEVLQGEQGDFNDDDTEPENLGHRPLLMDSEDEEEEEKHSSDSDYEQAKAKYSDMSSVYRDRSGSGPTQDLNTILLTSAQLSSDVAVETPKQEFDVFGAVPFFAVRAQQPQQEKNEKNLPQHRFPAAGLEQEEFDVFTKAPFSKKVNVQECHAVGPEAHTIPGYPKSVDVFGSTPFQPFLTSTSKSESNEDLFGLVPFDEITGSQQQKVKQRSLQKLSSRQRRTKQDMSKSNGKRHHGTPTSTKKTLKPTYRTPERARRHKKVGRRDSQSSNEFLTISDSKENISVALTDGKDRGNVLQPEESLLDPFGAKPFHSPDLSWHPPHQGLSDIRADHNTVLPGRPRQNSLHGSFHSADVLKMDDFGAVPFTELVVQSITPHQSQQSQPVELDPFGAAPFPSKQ
T2 sequence (P51617 whole entry): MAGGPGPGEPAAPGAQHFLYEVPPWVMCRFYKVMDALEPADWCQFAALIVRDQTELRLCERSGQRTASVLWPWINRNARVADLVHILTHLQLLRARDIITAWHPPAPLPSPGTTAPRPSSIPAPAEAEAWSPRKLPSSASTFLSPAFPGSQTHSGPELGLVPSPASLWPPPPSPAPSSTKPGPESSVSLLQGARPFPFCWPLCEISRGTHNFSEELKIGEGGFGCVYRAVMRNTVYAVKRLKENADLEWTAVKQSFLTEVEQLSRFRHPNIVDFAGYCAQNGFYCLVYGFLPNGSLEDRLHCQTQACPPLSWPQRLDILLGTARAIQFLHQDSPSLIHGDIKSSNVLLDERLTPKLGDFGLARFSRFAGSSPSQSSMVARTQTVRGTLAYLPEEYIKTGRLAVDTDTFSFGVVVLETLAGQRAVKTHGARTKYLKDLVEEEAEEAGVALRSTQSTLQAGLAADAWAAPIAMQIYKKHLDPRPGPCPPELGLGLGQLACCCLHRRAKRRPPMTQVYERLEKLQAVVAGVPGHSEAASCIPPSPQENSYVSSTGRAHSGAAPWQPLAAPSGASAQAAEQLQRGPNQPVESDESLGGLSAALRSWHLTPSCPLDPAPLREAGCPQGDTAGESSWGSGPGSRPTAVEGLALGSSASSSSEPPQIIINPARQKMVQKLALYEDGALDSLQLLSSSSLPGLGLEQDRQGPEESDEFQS

Usually inhibition stands for the change of the read-out against control, counted positive when it falls. As to `C=CC(=O)Nc1cc(-c2cc(-c3cc4c([nH]3)CCNC4=O)ccn2)ccc1OC(F)(F)F` [compound 11], the inhibition at 0.01 µM was 0% in test [1] (10 nM); -1% in test [2] (10 nM); -1% in test [3] (10 nM); -5% in test [4] (10 nM); -9% in test [5] (10 nM); -2% in test [6] (10 nM). Further, the inhibition at 0.01 µM in test [7] (10 nM) amounted to 0%. The inhibition at 0.1 µM is 2% in test [1] (100 nM); 3% in test [2] (100 nM); 2% in test [3] (100 nM); 1% in test [4] (100 nM); 14% in test [5] (100 nM); -6% in test [6] (100 nM). Also, in test [7] (100 nM), the inhibition at 0.1 µM was determined as 18%. Further, the inhibition at 1 µM in test [1] (1000 nM) amounted to 21%; in test [2] (1000 nM), 34%; in test [3] (1000 nM) it was 3%; in test [4] (1000 nM), 7%; in test [5] (1000 nM), 16%; in test [6] (1000 nM) it was 1%. For the same molecule, in test [7] (1000 nM), the inhibition at 1 µM came out at 48%.
